From PubChem BioAssay AID256 (DTP/NCI, 2004)
Where “and” joins values, the source holds several entries; their conditions need not be identical. Identical values can stand only once. Toxic doses and inconclusive results are not listed.

Test system: CD2F1 mice, L1210 leukemia ip, survival T/C
Experiment: NCI In Vivo Anticancer Drug Screen. Data for tumor model L1210 Leukemia (intraperitoneal) in CD2F1 (CDF1) mice
Settings: higher = longer survival
In short: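 Transplantable tumor in mice; compound-treated vs vehicle-treated groups. Read-out = treated/control ratio of the measured endpoint.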

[1] = endpoint: mean survival time, dose: 100.0 mg/kg/injection, schedule: Q01DX001 (ip), vehicle: saline
[2] = endpoint: mean survival time, dose: 200.0 mg/kg/injection, schedule: Q01DX001 (ip), vehicle: saline
[3] = endpoint: mean survival time, dose: 400.0 mg/kg/injection, schedule: Q01DX001 (ip), vehicle: saline
[4] = endpoint: mean survival time, dose: 100.0 mg/kg/injection, schedule: Q01DX009 (ip), vehicle: saline with Tween-80
[5] = endpoint: mean survival time, dose: 200.0 mg/kg/injection, schedule: Q01DX009 (ip), vehicle: saline with Tween-80
[6] = endpoint: mean survival time, dose: 400.0 mg/kg/injection, schedule: Q01DX009 (ip), vehicle: saline with Tween-80
[7] = endpoint: mean survival time, dose: 100.0 mg/kg/injection, schedule: Q04DX003 (ip), vehicle: saline with Tween-80
[8] = endpoint: mean survival time, dose: 200.0 mg/kg/injection, schedule: Q04DX003 (ip), vehicle: saline with Tween-80
[9] = endpoint: mean survival time, dose: 400.0 mg/kg/injection, schedule: Q04DX003 (ip), vehicle: saline with Tween-80

SMILES: Nc1ncnc2c1ncn2C1OC(COP(=O)(O)O)C(O)C1O (centres undefined)
- T/C (endpoint: mean survival time, dose: 9.4 mg/kg/injection, schedule: Q03HX016 (ip), vehicle: water): 106 % of control
- T/C (endpoint: mean survival time, dose: 9.4 mg/kg/injection, schedule: Q03HX024 (ip), vehicle: water): 109 % of control
- T/C (endpoint: mean survival time, dose: 12.5 mg/kg/injection, schedule: Q01DX009 (ip), vehicle: saline): 98 % of control
- T/C (endpoint: mean survival time, dose: 12.5 mg/kg/injection, schedule: Q01DX009 (ip), vehicle: water): 103 % of control
- T/C (endpoint: mean survival time, dose: 18.8 mg/kg/injection, schedule: Q03HX016 (ip), vehicle: water): 110 % of control
- T/C (endpoint: mean survival time, dose: 18.8 mg/kg/injection, schedule: Q03HX024 (ip), vehicle: water): 107 % of control
- T/C (endpoint: mean survival time, dose: 25.0 mg/kg/injection, schedule: Q01DX009 (ip), vehicle: saline): 104 % of control
- T/C (endpoint: mean survival time, dose: 25.0 mg/kg/injection, schedule: Q01DX009 (ip), vehicle: water): 107 % of control
- T/C (endpoint: mean survival time, dose: 27.5 mg/kg/injection, schedule: Q03DX024 (ip), vehicle: saline): 107 % of control
- T/C (endpoint: mean survival time, dose: 27.5 mg/kg/injection, schedule: Q04DX003 (ip), vehicle: saline): 105 % of control
- T/C (endpoint: mean survival time, dose: 36.7 mg/kg/injection, schedule: Q03DX024 (ip), vehicle: saline): 115 % of control
- T/C (endpoint: mean survival time, dose: 36.7 mg/kg/injection, schedule: Q04DX003 (ip), vehicle: saline): 103 % of control
- T/C (endpoint: mean survival time, dose: 37.5 mg/kg/injection, schedule: Q03HX016 (ip), vehicle: water): 114 % of control
- T/C (endpoint: mean survival time, dose: 37.5 mg/kg/injection, schedule: Q03HX024 (ip), vehicle: water): 113 % of control
- T/C (endpoint: mean survival time, dose: 50.0 mg/kg/injection, schedule: Q01DX009 (ip), vehicle: saline): 100 % of control
- T/C (endpoint: mean survival time, dose: 50.0 mg/kg/injection, schedule: Q01DX009 (ip), vehicle: water): 109 % of control
- T/C (endpoint: mean survival time, dose: 55.0 mg/kg/injection, schedule: Q03DX024 (ip), vehicle: saline): 112 % of control
- T/C (endpoint: mean survival time, dose: 55.0 mg/kg/injection, schedule: Q04DX003 (ip), vehicle: saline): 104 % of control
- T/C (endpoint: mean survival time, dose: 73.3 mg/kg/injection, schedule: Q03DX024 (ip), vehicle: saline): 118 % of control
- T/C (endpoint: mean survival time, dose: 73.3 mg/kg/injection, schedule: Q04DX003 (ip), vehicle: saline): 106 % of control
- T/C (endpoint: mean survival time, dose: 75.0 mg/kg/injection, schedule: Q03HX016 (ip), vehicle: water): 115 % of control
- T/C (endpoint: mean survival time, dose: 75.0 mg/kg/injection, schedule: Q03HX024 (ip), vehicle: water): 118 % of control
- T/C (endpoint: mean survival time, dose: 100.0 mg/kg/injection, schedule: Q01DX009 (ip), vehicle: saline): 102 % of control
- T/C (endpoint: mean survival time, dose: 100.0 mg/kg/injection, schedule: Q01DX009 (ip), vehicle: water): 115 % of control
- T/C (endpoint: mean survival time, dose: 200.0 mg/kg/injection, schedule: Q01DX009 (ip), vehicle: saline): 102 % of control and 108 % of control
- T/C (endpoint: mean survival time, dose: 200.0 mg/kg/injection, schedule: Q01DX009 (ip), vehicle: water): 119 % of control
- T/C (endpoint: mean survival time, dose: 315.0 mg/kg/injection, schedule: Q01DX009 (ip), vehicle: saline): 106 % of control
- T/C (endpoint: mean survival time, dose: 375.0 mg/kg/injection, schedule: Q03HX024 (ip), vehicle: saline): 156 % of control
- T/C (endpoint: mean survival time, dose: 400.0 mg/kg/injection, schedule: Q01DX009 (ip), vehicle: saline): 114 % of control and 102 % of control
- T/C (endpoint: mean survival time, dose: 470.0 mg/kg/injection, schedule: Q01DX009 (ip), vehicle: saline): 110 % of control
- T/C (endpoint: mean survival time, dose: 700.0 mg/kg/injection, schedule: Q01DX009 (ip), vehicle: saline): 112 % of control
- T/C (endpoint: mean survival time, dose: 800.0 mg/kg/injection, schedule: Q01DX009 (ip), vehicle: saline): 122 % of control
- T/C (endpoint: median survival time, dose: 20.0 mg/kg/injection, schedule: Q01DX009 (ip), vehicle: water): 102 % of control
- T/C (endpoint: median survival time, dose: 40.0 mg/kg/injection, schedule: Q01DX009 (ip), vehicle: water): 105 % of control and 107 % of control
- T/C (endpoint: median survival time, dose: 80.0 mg/kg/injection, schedule: Q01DX009 (ip), vehicle: water): 124 % of control and 108 % of control
- T/C (endpoint: median survival time, dose: 160.0 mg/kg/injection, schedule: Q01DX009 (ip), vehicle: water): 117 % of control

SMILES: CCCCCCCCC/C=C(\CCCCCCCCCC)c1ccccc1
- T/C [1]: 94 % of control
- T/C [2]: 94 % of control
- T/C [3]: 100 % of control

SMILES: CC#CC(=O)OC
- T/C (endpoint: mean survival time, dose: 50.0 mg/kg/injection, schedule: Q01DX009 (ip), vehicle: saline with Tween-80): 104 % of control
- T/C [4]: 104 % of control
- T/C [5]: 96 % of control

SMILES: c1ccc(C2=NN(c3ccccc3)CN(c3ccccc3)N2)cc1
- T/C [4]: 106 % of control
- T/C [5]: 97 % of control
- T/C [6]: 96 % of control

SMILES: Nc1nc2c(C(=O)N3CCCC3)nnn2c2ccccc12
- T/C (endpoint: median survival time, dose: 6.25 mg/kg/injection, schedule: Q01DX009 (ip), vehicle: saline with Tween-80): 100 % of control
- T/C (endpoint: median survival time, dose: 12.5 mg/kg/injection, schedule: Q01DX009 (ip), vehicle: saline with Tween-80): 98 % of control
- T/C (endpoint: median survival time, dose: 25.0 mg/kg/injection, schedule: Q01DX009 (ip), vehicle: saline with Tween-80): 97 % of control
- T/C (endpoint: median survival time, dose: 50.0 mg/kg/injection, schedule: Q01DX009 (ip), vehicle: saline with Tween-80): 95 % of control
- T/C (endpoint: median survival time, dose: 100.0 mg/kg/injection, schedule: Q01DX009 (ip), vehicle: saline with Tween-80): 95 % of control

SMILES: O=C(NCCCN1CCOCC1)c1ccc(C(=O)NCCCN2CCOCC2)cc1
- T/C [1]: 95 % of control
- T/C [2]: 98 % of control
- T/C [3]: 101 % of control

SMILES: Cc1cccc(NC(=O)/C=C/C(=O)O)c1
- T/C [4]: 94 % of control
- T/C [5]: 100 % of control

SMILES: O=C1OC2(c3cc(I)c(O)c(I)c3Oc3c2cc(I)c(O)c3I)c2c(Cl)ccc(Cl)c21
- T/C (endpoint: mean survival time, dose: 100.0 mg/kg/injection, schedule: Q01DX001 (ip), vehicle: saline with Tween-80): 103 % of control
- T/C (endpoint: mean survival time, dose: 200.0 mg/kg/injection, schedule: Q01DX001 (ip), vehicle: saline with Tween-80): 87 % of control
- T/C (endpoint: mean survival time, dose: 400.0 mg/kg/injection, schedule: Q01DX001 (ip), vehicle: saline with Tween-80): 100 % of control

SMILES: COc1ccc(CCNC(=O)NC(C)(C)C)cc1OC
- T/C [4]: 96 % of control
- T/C [5]: 100 % of control
- T/C [6]: 93 % of control

SMILES: NC(=O)c1ncn(C2OC3COP(=O)(O)OC3C2O)c1N (centres undefined)
- T/C (endpoint: median survival time, dose: 44.6 mg/kg/injection, schedule: Q01DX005 (ip), vehicle: saline): 98 % of control
- T/C (endpoint: median survival time, dose: 89.2 mg/kg/injection, schedule: Q01DX005 (ip), vehicle: saline): 101 % of control
- T/C (endpoint: median survival time, dose: 178.5 mg/kg/injection, schedule: Q01DX005 (ip), vehicle: saline): 93 % of control

SMILES: CCC(=O)c1cc([N+](=O)[O-])ccc1NC(C)=O
- T/C [7]: 100 % of control
- T/C [8]: 94 % of control
- T/C [9]: 88 % of control

SMILES: CCC(=O)c1ccc2c(c1)N(C(C)CN(C)C)c1ccccc1S2 (centres undefined)
- T/C (endpoint: mean survival time, dose: 25.0 mg/kg/injection, schedule: Q04DX003 (ip), vehicle: saline): 97 % of control
- T/C (endpoint: mean survival time, dose: 50.0 mg/kg/injection, schedule: Q04DX003 (ip), vehicle: saline): 97 % of control
- T/C (endpoint: mean survival time, dose: 100.0 mg/kg/injection, schedule: Q04DX003 (ip), vehicle: saline): 101 % of control

SMILES: CC/C(=N/NC(=O)c1ccccc1)c1ccccc1
- T/C (endpoint: mean survival time, dose: 100.0 mg/kg/injection, schedule: Q01DX009 (ip), vehicle: Klucel (hydroxypropylcellulose) (HPC)): 97 % of control
- T/C (endpoint: mean survival time, dose: 100.0 mg/kg/injection, schedule: Q04DX003 (ip), vehicle: Klucel (hydroxypropylcellulose) (HPC)): 96 % of control
- T/C (endpoint: mean survival time, dose: 200.0 mg/kg/injection, schedule: Q04DX003 (ip), vehicle: Klucel (hydroxypropylcellulose) (HPC)): 94 % of control
- T/C (endpoint: mean survival time, dose: 400.0 mg/kg/injection, schedule: Q04DX003 (ip), vehicle: Klucel (hydroxypropylcellulose) (HPC)): 86 % of control

SMILES: CC1(C)SC(C(NC(=O)COc2ccccc2)C(=O)O)NC1C(=O)O (centres undefined)
- T/C [7]: 97 % of control
- T/C [8]: 97 % of control

SMILES: Nc1cc2c(c[n+](CCCBr)c3ccccc23)c2ccccc12
- T/C (endpoint: mean survival time, dose: 3.13 mg/kg/injection, schedule: Q04DX003 (ip), vehicle: other): 111 % of control
- T/C (endpoint: mean survival time, dose: 6.25 mg/kg/injection, schedule: Q04DX003 (ip), vehicle: other): 122 % of control
- T/C (endpoint: mean survival time, dose: 12.5 mg/kg/injection, schedule: Q04DX003 (ip), vehicle: other): 120 % of control
- T/C (endpoint: mean survival time, dose: 25.0 mg/kg/injection, schedule: Q04DX003 (ip), vehicle: other): 109 % of control
- T/C (endpoint: mean survival time, dose: 50.0 mg/kg/injection, schedule: Q04DX003 (ip), vehicle: other): 87 % of control

SMILES: N#CCCN1CCS(=O)(=O)C1=O
- T/C (endpoint: mean survival time, dose: 19.0 mg/kg/injection, schedule: Q01DX001 (ip), vehicle: other): 107 % of control
- T/C (endpoint: mean survival time, dose: 38.0 mg/kg/injection, schedule: Q01DX001 (ip), vehicle: other): 115 % of control
- T/C (endpoint: mean survival time, dose: 75.0 mg/kg/injection, schedule: Q01DX001 (ip), vehicle: other): 112 % of control
- T/C (endpoint: mean survival time, dose: 150.0 mg/kg/injection, schedule: Q01DX001 (ip), vehicle: other): 117 % of control and 109 % of control

SMILES: CCOC(=O)C(Cc1ccccc1Cl)(Cc1ccccc1Cl)c1ccccc1
- T/C [7]: 93 % of control
- T/C [8]: 98 % of control
- T/C [9]: 90 % of control

SMILES: CCN(CC)P(=O)(NCCCl)OC (centres undefined)
- T/C (endpoint: mean survival time, dose: 100.0 mg/kg/injection, schedule: Q01DX009 (ip), vehicle: DMSO): 103 % of control
